# Patent publication US10280150B2 (FORMA TM2, Inc., priority 2014, dated 2019)
# pIC50: −log10 of the molar value.
# Target: IDH1-R132H recombinant protein (Homo sapiens (Human), UniProt O75874, R132H)
# Test: IDH1-R132H enzymatic assay (inhibition of NADPH consumption, diaphorase/resazurin readout)
# Type: biochemical
# Conditions: read-out: Enzyme IDH1 R132H IC50 (Range)
# Description: Assays were performed in a 384-well black plate. An aliquot of 250 nL of compound was incubated with 10 μL of 30 nM IDH1-R132H or 10 nM IDH1-R132C recombinant protein in assay buffer (50 mM Tris pH=7.5, 150 mM NaCl, 5 mM MgCl2, 0.1% (w/v) Bovine Serum Albumin, and 0.01% Triton X-100) in each well at 25° C. for 15 minutes. After the plate was centrifuged briefly, an aliquot of 10 μL of 2 mM α-ketoglutarate and 20 μM NADPH solution prepared in assay buffer was then added to each well and the reaction was maintained at 25° C. for 45 minutes. An aliquot of 10 μL of diaphorase solution (0.15 U/mL diaphorase and 30 µM Resazurin in assay buffer) was added to each well. The plate was maintained at 25° C. for 15 minutes and then read on a plate reader with excitation and emission wavelengths at 535 nm and 590 nm, respectively. The IC50 of a given compound was calculated by fitting the dose response curve of inhibition of NADPH consumption at a given concentration with the four parameter logistic equation.
# IDH1-R132H recombinant protein, sequence (O75874 whole entry R132H): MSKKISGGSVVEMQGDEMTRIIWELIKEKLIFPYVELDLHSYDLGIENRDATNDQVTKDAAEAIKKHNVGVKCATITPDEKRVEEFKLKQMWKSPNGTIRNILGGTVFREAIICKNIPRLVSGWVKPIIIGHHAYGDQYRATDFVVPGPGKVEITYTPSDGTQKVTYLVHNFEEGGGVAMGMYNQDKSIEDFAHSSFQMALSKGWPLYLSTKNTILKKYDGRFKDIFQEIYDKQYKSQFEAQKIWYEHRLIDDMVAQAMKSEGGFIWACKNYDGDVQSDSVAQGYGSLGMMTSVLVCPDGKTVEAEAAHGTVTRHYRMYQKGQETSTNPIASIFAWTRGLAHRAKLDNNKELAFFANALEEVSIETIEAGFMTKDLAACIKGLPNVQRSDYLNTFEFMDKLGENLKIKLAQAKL
row,SMILES,pIC50
1,C[C@H](Nc1nccc(N(CC(C)(C)C)S(C)(=O)=O)n1)c1cc2cc(Cl)ccc2[nH]c1=O [Compound I-1],> 7.00
2,"C[C@H](Nc1nccc(CN(C2CC2)S(C)(=O)=O)n1)c1cc2cc(Cl)ccc2[nH]c1=O [Compound I-6, (S)—N-((2-((1-(6-Chloro-2-oxo-1,2-dihydroquinolin-3-yl)ethyl)amino)pyrimidin-4-yl)methyl)-N-cyclopropylmethanesulfonamide]",6.00 to 7.00
3,"C[C@H](Nc1nccc(NC2CC2)n1)c1cc2cc(Cl)ccc2[nH]c1=O [Compound I-9, (S)-6-Chloro-3-(1-((4-(cyclopropylamino)pyrimidin-2-yl)amino)ethyl)quinolin-2(1H)-one]",5.00 to 6.00
4,C[C@H](Nc1nccc(N(CC(F)(F)F)S(C)(=O)=O)n1)c1cc2cc(Cl)ccc2[nH]c1=O [Compound I-13],> 7.00
5,C[C@H](Nc1nccc(NS(C)(=O)=O)n1)c1cc2cc(Cl)ccc2[nH]c1=O [Compound I-17],< 5.00
6,CC(C)CS(=O)(=O)Nc1ccnc(N[C@@H](C)c2cc3cc(Cl)ccc3[nH]c2=O)n1 [Compound I-18],5.00 to 6.00
7,C[C@H](Nc1nccc(N(CC(C)(C)O)S(C)(=O)=O)n1)c1cc2cc(Cl)ccc2[nH]c1=O [Compound I-19],5.00 to 6.00
8,"CC(C)CC(=O)N(c1ccnc(N[C@@H](C)c2cc3cc(Cl)ccc3[nH]c2=O)n1)C1CC1 [Compound I-24, (S)—N-(2-((1-(6-Chloro-2-oxo-1,2-dihydroquinolin-3-yl)ethyl)amino)pyrimidin-4-yl)-N-cyclopropyl-3-methylbutanamide]",6.00 to 7.00
9,"CC(=O)N(CC(C)(C)C)c1ccnc(N[C@@H](C)c2cc3cc(Cl)ccc3[nH]c2=O)n1 [Compound I-26, (S)—N-(2-((1-(6-Chloro-2-oxo-1,2-dihydroquinolin-3-yl)ethyl)amino)pyrmidin-4-yl)-N-neopentylacetamide]",> 7.00
10,"C[C@H](Nc1nccc(NC(=O)CC2CCOCC2)n1)c1cc2cc(Cl)ccc2[nH]c1=O [Compound I-27, (S)—N-(2-((1-(6-chloro-2-oxo-1,2-dihydroquinolin-3-yl)ethyl)amino)pyrimidin-4-yl)-2-(tetrahydro-2H-pyran-4-yl)acetamide]",6.00 to 7.00
11,"CC(=O)N(c1ccnc(N[C@@H](C)c2cc3cc(Cl)ccc3[nH]c2=O)n1)C1CC1 [Compound I-28, (S)—N-(2-((1-(6-chloro-2-oxo-1,2-dihydroquinolin-3-yl)ethyl)amino)pyrimidin-4-yl)-N-cyclopropylacetamide]",6.00 to 7.00
12,CC(=O)N(c1ccnc(N[C@@H](C)c2cc3cc(Cl)ccc3[nH]c2=O)n1)C(C)(C)C [Compound I-30],5.00 to 6.00
13,CC(C)CC(=O)Nc1ccnc(N[C@@H](C)c2cc3cc(Cl)ccc3[nH]c2=O)n1 [Compound I-31],6.00 to 7.00
14,"COCC(=O)Nc1ccnc(N[C@@H](C)c2cc3cc(Cl)ccc3[nH]c2=O)n1 [Compound I-32, (S)—N-(2-((1-(6-Chloro-2-oxo-1,2-dihydroquinolin-3-yl)ethyl)amino)pyrimidin-4-yl)-2-methoxyacetamide]",> 7.00
15,CC(=O)N(CC(C)C)c1ccnc(NC(C)c2cc3cc(Cl)ccc3[nH]c2=O)n1 (stereo not drawn) [Compound I-34],6.00 to 7.00
16,"CC(C)[C@H]1COC(=O)N1c1ccnc(N[C@H](C)c2cc3cc(Cl)ccc3[nH]c2=O)n1 [Compound I-43, (S)-3-(2-(((R)-1-(6-Chloro-2-oxo-1,2-dihydroquinolin-3-yl)ethyl)amino)pyrimidin-4-yl)-4-isopropyloxazolidin-2-one]",< 5.00
17,CC(Nc1nccc(N2CCOC2=O)n1)c1cc2ccccc2[nH]c1=O (stereo not drawn) [Compound I-49],6.00 to 7.00
18,O=C1CCCN1c1ccnc(NCc2cc3cc(Cl)ccc3[nH]c2=O)n1 [Compound I-50],6.00 to 7.00
19,C[C@H](Nc1nccc(-n2cccc2)n1)c1cc2cc(Cl)ccc2[nH]c1=O [Compound I-52],6.00 to 7.00
20,"Cc1ncn(-c2ccnc(N[C@@H](C)c3cc4cc(Cl)ccc4[nH]c3=O)n2)c1C [Compound I-53, (S)-6-Chloro-3-(1-((4-(4,5-dimethyl-1H-imidazol-1-yl)pyrimidin-2-yl)amino)ethyl)quinolin-2(1H)-one]",> 7.00
21,Cc1nccn1-c1ccnc(N[C@@H](C)c2cc3cc(Cl)ccc3[nH]c2=O)n1 [Compound I-56],5.00 to 6.00
22,Cc1cn(-c2ccnc(N[C@@H](C)c3cc4cc(Cl)ccc4[nH]c3=O)n2)cn1 [Compound I-57],6.00 to 7.00
23,"C[C@H](Nc1nccc(-c2cncnc2)n1)c1cc2cc(Cl)ccc2[nH]c1=O [Compound I-62, (S)-3-(1-(4,5′-bipyrimidin-2-ylamino)ethyl)-6-chloroquinolin-2(1H)-one]",5.00 to 6.00
24,"C[C@H](Nc1nccc(-c2ccnn2C)n1)c1cc2cc(Cl)ccc2[nH]c1=O [Compound I-67, (S)-6-Chloro-3-(1-((4-(1-methyl-1H-pyrazol-5-yl)pyrimidin-2-yl)amino)ethyl)quinolin-2(1H)-one]",6.00 to 7.00
25,Cc1noc(C)c1-c1ccnc(N[C@@H](C)c2cc3cc(Cl)ccc3[nH]c2=O)n1 [Compound I-69],5.00 to 6.00
26,C[C@H](Nc1nccc(-c2cnoc2)n1)c1cc2cc(Cl)ccc2[nH]c1=O [Compound I-70],5.00 to 6.00

row,SMILES,pIC50
1,CC(=O)c1ccccc1-c1ccnc(N[C@@H](C)c2cc3cc(Cl)ccc3[nH]c2=O)n1 [Compound I-72],5.00 to 6.00
2,CC(=O)Nc1ccccc1-c1ccnc(N[C@@H](C)c2cc3cc(Cl)ccc3[nH]c2=O)n1 [Compound I-73],5.00 to 6.00
3,Cc1cc(-c2ccnc(N[C@@H](C)c3cc4cc(Cl)ccc4[nH]c3=O)n2)n(C)n1 [Compound I-76],5.00 to 6.00
4,Cc1nn(C)cc1-c1ccnc(N[C@@H](C)c2cc3cc(Cl)ccc3[nH]c2=O)n1 [Compound I-77],5.00 to 6.00
5,Cc1nc(C)c(-c2ccnc(N[C@@H](C)c3cc4cc(Cl)ccc4[nH]c3=O)n2)s1 [Compound I-78],5.00 to 6.00
6,Cc1n[nH]c(C)c1-c1ccnc(N[C@@H](C)c2cc3cc(Cl)ccc3[nH]c2=O)n1 [Compound I-82],5.00 to 6.00
7,Cc1nc(N[C@@H](C)c2cc3cc(Cl)ccc3[nH]c2=O)ncc1Br [Compound I-103],6.00 to 7.00
8,"C[C@H](Nc1nccc(S(C)(=O)=O)n1)c1cc2cc(Cl)ccc2[nH]c1=O [Compound I-105, (S)-6-Chloro-3-(1-((4-(methylsulfonyl)pyrimidin-2-yl)amino)ethyl)quinolin-2(1H)-one]",6.00 to 7.00
9,CC(C)C[S@@+]([O-])c1ccnc(N[C@@H](C)c2cc3cc(Cl)ccc3[nH]c2=O)n1 [Compound I-106],5.00 to 6.00
10,CC(C)CSc1ccnc(N[C@@H](C)c2cc3cc(Cl)ccc3[nH]c2=O)n1 [Compound I-107],5.00 to 6.00
11,CC(C)CS(=O)(=O)c1ccnc(N[C@@H](C)c2cc3cc(Cl)ccc3[nH]c2=O)n1 [Compound I-108],6.00 to 7.00
12,CC(C)C[S@+]([O-])c1ccnc(N[C@@H](C)c2cc3cc(Cl)ccc3[nH]c2=O)n1 [Compound I-109],> 7.00
13,C[C@H](Nc1nccc(SCc2ccccc2)n1)c1cc2cc(Cl)ccc2[nH]c1=O [Compound I-110],5.00 to 6.00
14,CC(C)CC(c1ccnc(N[C@@H](C)c2cc3cc(Cl)ccc3[nH]c2=O)n1)S(C)(=O)=O (stereo partly drawn) [Compound I-118],6.00 to 7.00
15,"C[C@H](Nc1nccc(CN2CCCS2(=O)=O)n1)c1cc2cc(Cl)ccc2[nH]c1=O [Compound I-119, (S)-6-chloro-3-(1-((4-((1,1-dioxidoisothiazolidin-2-yl)methyl)pyrimidin-2-yl)amino)ethyl) quinolin-2(1H)-one]",6.00 to 7.00
16,C[C@H](Nc1nccc(C2CCCS2(=O)=O)n1)c1cc2cc(Cl)ccc2[nH]c1=O (stereo partly drawn) [Compound I-120],6.00 to 7.00
17,"C[C@H](Nc1nccc(NC2CCOC2)n1)c1cc2cc(Cl)ccc2[nH]c1=O (stereo partly drawn) [Compound I-122, 6-Chloro-3-((1S)-1-((4-((tetrahydrofuran-3-yl)amino)pyrimidin-2-yl)amino)ethyl) quinolin-2(1H)-one]",5.00 to 6.00
18,"C[C@H](Nc1nccc(N(C)C(=O)N(C)C)n1)c1cc2cc(Cl)ccc2[nH]c1=O [Compound I-125, (S)-1-(2-((1-(6-chloro-2-oxo-1,2-dihydroquinolin-3-yl)ethyl)amino)pyrimidin-4-yl)-1,3,3-trimethylurea]",5.00 to 6.00
19,"C[C@H](Nc1nccc(NC(=O)N(C)C)n1)c1cc2cc(Cl)ccc2[nH]c1=O [Compound I-126, (S)-3-(2-((1-(6-chloro-2-oxo-1,2-dihydroquinolin-3-yl)ethyl)amino)pyrimidin-4-yl)-1,1-dimethylurea]",< 5.00
20,"C[C@H](Nc1nccc(Nc2ncco2)n1)c1cc2cc(Cl)ccc2[nH]c1=O [Compound I-127, (S)-6-Chloro-3-(1-((4-(oxazol-2-ylamino)pyrimidin-2-yl)amino)ethyl)quinolin-2(1H)-one]",6.00 to 7.00
21,CC(C)CN(c1ccnc(N[C@@H](C)c2cc3cc(Cl)ccc3[nH]c2=O)n1)c1ncco1 [Compound I-128],6.00 to 7.00
22,"C[C@H](Nc1nccc(CC(N)=O)n1)c1cc2cc(Cl)ccc2[nH]c1=O [Compound I-130, (S)-2-(2-((1-(6-chloro-2-oxo-1,2-dihydroquinolin-3-yl)ethyl)amino)pyrimidin-4-yl) acetamide]",6.00 to 7.00
23,CNC(=O)Cc1ccnc(N[C@@H](C)c2cc3cc(Cl)ccc3[nH]c2=O)n1 [Compound I-131],6.00 to 7.00
24,C[C@H](Nc1nccc(CNS(C)(=O)=O)n1)c1cc2cc(Cl)ccc2[nH]c1=O [Compound I-132],5.00 to 6.00
25,COC(=O)C(c1ccnc(N[C@@H](C)c2cc3cc(Cl)ccc3[nH]c2=O)n1)S(C)(=O)=O (stereo partly drawn) [Compound I-134],5.00 to 6.00
